Source: ChEMBL document CHEMBL5303573, “Mapping human microbiome drug metabolism by gut bacteria and their genes” (Nature, 2019)

Conditions: bacteroides thetaiotaomicron, 12 h, 2 µM
Description: The drug is tested on Bacteroides thetaiotaomicron strain: 3731 for biotransformation. The drug concentrations were measured before and after a 12-h incubation by liquid-chromatography-coupled mass spectrometry (LC–MS)

Bacterial Biotransformation	SMILES
Compound metabolized	CCCC1O[C@@H]2C[C@H]3[C@@H]4CCC5=CC(=O)C=C[C@]5(C)[C@H]4[C@@H](O)C[C@]3(C)[C@]2(C(=O)CO)O1 (stereo partly drawn) [BUDESONIDE]
Compound metabolized	CC(C)(Oc1ccc(CCNC(=O)c2ccc(Cl)cc2)cc1)C(=O)O [BEZAFIBRATE]
Compound NOT metabolized	CN1CCN(CC/C=C2/c3ccccc3Sc3ccc(S(=O)(=O)N(C)C)cc32)CC1 [THIOTHIXENE]

Assay: The drug is tested on Collinsella aerofaciens strain: ATCC25986 for biotransformation. The drug concentrations were measured before and after a 12-h incubation by liquid-chromatography-coupled mass spectrometry (LC–MS)
Conditions: 2 µM

Bacterial Biotransformation	SMILES
Compound NOT metabolized	CCCC1O[C@@H]2C[C@H]3[C@@H]4CCC5=CC(=O)C=C[C@]5(C)[C@H]4[C@@H](O)C[C@]3(C)[C@]2(C(=O)CO)O1 (stereo partly drawn) [BUDESONIDE]
Compound metabolized	CC(C)(Oc1ccc(CCNC(=O)c2ccc(Cl)cc2)cc1)C(=O)O [BEZAFIBRATE]
Compound metabolized	CN1CCN(CC/C=C2/c3ccccc3Sc3ccc(S(=O)(=O)N(C)C)cc32)CC1 [THIOTHIXENE]

Assay: The drug is tested on Coprococcus comes strain: ATCC27758 for biotransformation. The drug concentrations were measured before and after a 12-h incubation by liquid-chromatography-coupled mass spectrometry (LC–MS)
Type: ADME
Design: dose 2 uM, timepoint 0 vs 12 hours
Conditions: 2 µM

Bacterial Biotransformation	SMILES
Compound NOT metabolized	CCCC1O[C@@H]2C[C@H]3[C@@H]4CCC5=CC(=O)C=C[C@]5(C)[C@H]4[C@@H](O)C[C@]3(C)[C@]2(C(=O)CO)O1 (stereo partly drawn) [BUDESONIDE]
Compound metabolized	CC(C)(Oc1ccc(CCNC(=O)c2ccc(Cl)cc2)cc1)C(=O)O [BEZAFIBRATE]
Compound NOT metabolized	CN1CCN(CC/C=C2/c3ccccc3Sc3ccc(S(=O)(=O)N(C)C)cc32)CC1 [THIOTHIXENE]

Assay: The drug is tested on Bifidobacterium longum subsp. Infantis strain: CCUG52486 for biotransformation. The drug concentrations were measured before and after a 12-h incubation by liquid-chromatography-coupled mass spectrometry (LC–MS)
Conditions: 2 µM

Bacterial Biotransformation	SMILES
Compound NOT metabolized	CCCC1O[C@@H]2C[C@H]3[C@@H]4CCC5=CC(=O)C=C[C@]5(C)[C@H]4[C@@H](O)C[C@]3(C)[C@]2(C(=O)CO)O1 (stereo partly drawn) [BUDESONIDE]
Compound metabolized	CC(C)(Oc1ccc(CCNC(=O)c2ccc(Cl)cc2)cc1)C(=O)O [BEZAFIBRATE]
Compound NOT metabolized	CN1CCN(CC/C=C2/c3ccccc3Sc3ccc(S(=O)(=O)N(C)C)cc32)CC1 [THIOTHIXENE]

Assay: The drug is tested on Bacteroides xylanisolvens strain: DSM18836 for biotransformation. The drug concentrations were measured before and after a 12-h incubation by liquid-chromatography-coupled mass spectrometry (LC–MS)
Conditions: 2 µM

Bacterial Biotransformation	SMILES
Compound metabolized	CC(C)(Oc1ccc(CCNC(=O)c2ccc(Cl)cc2)cc1)C(=O)O [BEZAFIBRATE]
Compound metabolized	CN1CCN(CC/C=C2/c3ccccc3Sc3ccc(S(=O)(=O)N(C)C)cc32)CC1 [THIOTHIXENE]

Assay: The drug is tested on Eubacterium hallii strain: DSM3353 for biotransformation. The drug concentrations were measured before and after a 12-h incubation by liquid-chromatography-coupled mass spectrometry (LC–MS)
Conditions: anaerobutyricum hallii, 2 µM

Bacterial Biotransformation	SMILES
Compound NOT metabolized	CCCC1O[C@@H]2C[C@H]3[C@@H]4CCC5=CC(=O)C=C[C@]5(C)[C@H]4[C@@H](O)C[C@]3(C)[C@]2(C(=O)CO)O1 (stereo partly drawn) [BUDESONIDE]
Compound metabolized	CC(C)(Oc1ccc(CCNC(=O)c2ccc(Cl)cc2)cc1)C(=O)O [BEZAFIBRATE]
Compound NOT metabolized	CN1CCN(CC/C=C2/c3ccccc3Sc3ccc(S(=O)(=O)N(C)C)cc32)CC1 [THIOTHIXENE]

Assay: The drug is tested on Ruminococcus lactaris strain: ATCC29176 for biotransformation. The drug concentrations were measured before and after a 12-h incubation by liquid-chromatography-coupled mass spectrometry (LC–MS)
Conditions: 2 µM

Bacterial Biotransformation	SMILES
Compound NOT metabolized	CCCC1O[C@@H]2C[C@H]3[C@@H]4CCC5=CC(=O)C=C[C@]5(C)[C@H]4[C@@H](O)C[C@]3(C)[C@]2(C(=O)CO)O1 (stereo partly drawn) [BUDESONIDE]
Compound NOT metabolized	CC(C)(Oc1ccc(CCNC(=O)c2ccc(Cl)cc2)cc1)C(=O)O [BEZAFIBRATE]
Compound metabolized	CN1CCN(CC/C=C2/c3ccccc3Sc3ccc(S(=O)(=O)N(C)C)cc32)CC1 [THIOTHIXENE]

Assay: The drug is tested on Clostridium scindens strain: ATCC35704 for biotransformation. The drug concentrations were measured before and after a 12-h incubation by liquid-chromatography-coupled mass spectrometry (LC–MS)
Conditions: 2 µM

Bacterial Biotransformation	SMILES
Compound NOT metabolized	CCCC1O[C@@H]2C[C@H]3[C@@H]4CCC5=CC(=O)C=C[C@]5(C)[C@H]4[C@@H](O)C[C@]3(C)[C@]2(C(=O)CO)O1 (stereo partly drawn) [BUDESONIDE]
Compound metabolized	CC(C)(Oc1ccc(CCNC(=O)c2ccc(Cl)cc2)cc1)C(=O)O [BEZAFIBRATE]
Compound metabolized	CN1CCN(CC/C=C2/c3ccccc3Sc3ccc(S(=O)(=O)N(C)C)cc32)CC1 [THIOTHIXENE]

Assay: The drug is tested on Enterobacter cancerogenus strain: ATCC35316 for biotransformation. The drug concentrations were measured before and after a 12-h incubation by liquid-chromatography-coupled mass spectrometry (LC–MS)
Conditions: 2 µM

Bacterial Biotransformation	SMILES
Compound NOT metabolized	CCCC1O[C@@H]2C[C@H]3[C@@H]4CCC5=CC(=O)C=C[C@]5(C)[C@H]4[C@@H](O)C[C@]3(C)[C@]2(C(=O)CO)O1 (stereo partly drawn) [BUDESONIDE]
Compound metabolized	CC(C)(Oc1ccc(CCNC(=O)c2ccc(Cl)cc2)cc1)C(=O)O [BEZAFIBRATE]
Compound metabolized	CN1CCN(CC/C=C2/c3ccccc3Sc3ccc(S(=O)(=O)N(C)C)cc32)CC1 [THIOTHIXENE]

Assay: The drug is tested on Bacteroides fragilis strain: HMW615 for biotransformation. The drug concentrations were measured before and after a 12-h incubation by liquid-chromatography-coupled mass spectrometry (LC–MS)
Conditions: 2 µM

Bacterial Biotransformation	SMILES
Compound metabolized	CCCC1O[C@@H]2C[C@H]3[C@@H]4CCC5=CC(=O)C=C[C@]5(C)[C@H]4[C@@H](O)C[C@]3(C)[C@]2(C(=O)CO)O1 (stereo partly drawn) [BUDESONIDE]
Compound NOT metabolized	CN1CCN(CC/C=C2/c3ccccc3Sc3ccc(S(=O)(=O)N(C)C)cc32)CC1 [THIOTHIXENE]

Assay: The drug is tested on Bacteroides finegoldii strain: DSM17565 for biotransformation. The drug concentrations were measured before and after a 12-h incubation by liquid-chromatography-coupled mass spectrometry (LC–MS)
Conditions: 2 µM

Bacterial Biotransformation	SMILES
Compound NOT metabolized	CCCC1O[C@@H]2C[C@H]3[C@@H]4CCC5=CC(=O)C=C[C@]5(C)[C@H]4[C@@H](O)C[C@]3(C)[C@]2(C(=O)CO)O1 (stereo partly drawn) [BUDESONIDE]
Compound metabolized	CC(C)(Oc1ccc(CCNC(=O)c2ccc(Cl)cc2)cc1)C(=O)O [BEZAFIBRATE]

Assay: The drug is tested on Bacteroides caccae strain: ATCC43185 for biotransformation. The drug concentrations were measured before and after a 12-h incubation by liquid-chromatography-coupled mass spectrometry (LC–MS)
Conditions: 2 µM

Bacterial Biotransformation	SMILES
Compound NOT metabolized	CCCC1O[C@@H]2C[C@H]3[C@@H]4CCC5=CC(=O)C=C[C@]5(C)[C@H]4[C@@H](O)C[C@]3(C)[C@]2(C(=O)CO)O1 (stereo partly drawn) [BUDESONIDE]
Compound metabolized	CC(C)(Oc1ccc(CCNC(=O)c2ccc(Cl)cc2)cc1)C(=O)O [BEZAFIBRATE]
Compound NOT metabolized	CN1CCN(CC/C=C2/c3ccccc3Sc3ccc(S(=O)(=O)N(C)C)cc32)CC1 [THIOTHIXENE]

Assay: The drug is tested on Odoribacter splanchnicus strain: fecal isolate for biotransformation. The drug concentrations were measured before and after a 12-h incubation by liquid-chromatography-coupled mass spectrometry (LC–MS)
Conditions: 2 µM

Bacterial Biotransformation	SMILES
Compound metabolized	CCCC1O[C@@H]2C[C@H]3[C@@H]4CCC5=CC(=O)C=C[C@]5(C)[C@H]4[C@@H](O)C[C@]3(C)[C@]2(C(=O)CO)O1 (stereo partly drawn) [BUDESONIDE]
Compound metabolized	CC(C)(Oc1ccc(CCNC(=O)c2ccc(Cl)cc2)cc1)C(=O)O [BEZAFIBRATE]
Compound metabolized	CN1CCN(CC/C=C2/c3ccccc3Sc3ccc(S(=O)(=O)N(C)C)cc32)CC1 [THIOTHIXENE]

Conditions: bacteroides intestinalis, 12 h, 2 µM
Description: The drug is tested on Bacteroides intestinalis strain: DSM17393 for biotransformation. The drug concentrations were measured before and after a 12-h incubation by liquid-chromatography-coupled mass spectrometry (LC–MS)

Bacterial Biotransformation	SMILES
Compound NOT metabolized	CCCC1O[C@@H]2C[C@H]3[C@@H]4CCC5=CC(=O)C=C[C@]5(C)[C@H]4[C@@H](O)C[C@]3(C)[C@]2(C(=O)CO)O1 (stereo partly drawn) [BUDESONIDE]
Compound metabolized	CC(C)(Oc1ccc(CCNC(=O)c2ccc(Cl)cc2)cc1)C(=O)O [BEZAFIBRATE]
Compound NOT metabolized	CN1CCN(CC/C=C2/c3ccccc3Sc3ccc(S(=O)(=O)N(C)C)cc32)CC1 [THIOTHIXENE]

Assay: The drug is tested on Clostridium sporogenes strain: ATCC15579 for biotransformation. The drug concentrations were measured before and after a 12-h incubation by liquid-chromatography-coupled mass spectrometry (LC–MS)
Conditions: 2 µM

Bacterial Biotransformation	SMILES
Compound metabolized	CC(C)(Oc1ccc(CCNC(=O)c2ccc(Cl)cc2)cc1)C(=O)O [BEZAFIBRATE]

Conditions: parabacteroides distasonis, 12 h, 2 µM
Description: The drug is tested on Parabacteroides distasonis strain: ATCC8503 for biotransformation. The drug concentrations were measured before and after a 12-h incubation by liquid-chromatography-coupled mass spectrometry (LC–MS)

Bacterial Biotransformation	SMILES
Compound NOT metabolized	CCCC1O[C@@H]2C[C@H]3[C@@H]4CCC5=CC(=O)C=C[C@]5(C)[C@H]4[C@@H](O)C[C@]3(C)[C@]2(C(=O)CO)O1 (stereo partly drawn) [BUDESONIDE]
Compound metabolized	CC(C)(Oc1ccc(CCNC(=O)c2ccc(Cl)cc2)cc1)C(=O)O [BEZAFIBRATE]
Compound metabolized	CN1CCN(CC/C=C2/c3ccccc3Sc3ccc(S(=O)(=O)N(C)C)cc32)CC1 [THIOTHIXENE]

Conditions: anaerostipes sp., 12 h, 2 µM
Description: The drug is tested on Anaerostipes sp. strain: fecal isolate for biotransformation. The drug concentrations were measured before and after a 12-h incubation by liquid-chromatography-coupled mass spectrometry (LC–MS)

Bacterial Biotransformation	SMILES
Compound NOT metabolized	CCCC1O[C@@H]2C[C@H]3[C@@H]4CCC5=CC(=O)C=C[C@]5(C)[C@H]4[C@@H](O)C[C@]3(C)[C@]2(C(=O)CO)O1 (stereo partly drawn) [BUDESONIDE]
Compound metabolized	CC(C)(Oc1ccc(CCNC(=O)c2ccc(Cl)cc2)cc1)C(=O)O [BEZAFIBRATE]
Compound metabolized	CN1CCN(CC/C=C2/c3ccccc3Sc3ccc(S(=O)(=O)N(C)C)cc32)CC1 [THIOTHIXENE]

Assay: The drug is tested on Bacteroides fragilis strain: ATCC43859 for biotransformation. The drug concentrations were measured before and after a 12-h incubation by liquid-chromatography-coupled mass spectrometry (LC–MS)
Conditions: 2 µM

Bacterial Biotransformation	SMILES
Compound metabolized	CCCC1O[C@@H]2C[C@H]3[C@@H]4CCC5=CC(=O)C=C[C@]5(C)[C@H]4[C@@H](O)C[C@]3(C)[C@]2(C(=O)CO)O1 (stereo partly drawn) [BUDESONIDE]
Compound metabolized	CC(C)(Oc1ccc(CCNC(=O)c2ccc(Cl)cc2)cc1)C(=O)O [BEZAFIBRATE]
Compound NOT metabolized	CN1CCN(CC/C=C2/c3ccccc3Sc3ccc(S(=O)(=O)N(C)C)cc32)CC1 [THIOTHIXENE]

Assay: The drug is tested on Providencia rettgeri strain: DSM1131 for biotransformation. The drug concentrations were measured before and after a 12-h incubation by liquid-chromatography-coupled mass spectrometry (LC–MS)
Type: ADME
Design: dose 2 uM, timepoint 0 vs 12 hours
Conditions: 2 µM

Bacterial Biotransformation	SMILES
Compound metabolized	CC(C)(Oc1ccc(CCNC(=O)c2ccc(Cl)cc2)cc1)C(=O)O [BEZAFIBRATE]

Conditions: bacteroides fragilis, 12 h, 2 µM
Description: The drug is tested on Bacteroides fragilis strain: 3397 (T10) for biotransformation. The drug concentrations were measured before and after a 12-h incubation by liquid-chromatography-coupled mass spectrometry (LC–MS)

Bacterial Biotransformation	SMILES
Compound metabolized	CCCC1O[C@@H]2C[C@H]3[C@@H]4CCC5=CC(=O)C=C[C@]5(C)[C@H]4[C@@H](O)C[C@]3(C)[C@]2(C(=O)CO)O1 (stereo partly drawn) [BUDESONIDE]
Compound metabolized	CC(C)(Oc1ccc(CCNC(=O)c2ccc(Cl)cc2)cc1)C(=O)O [BEZAFIBRATE]
Compound NOT metabolized	CN1CCN(CC/C=C2/c3ccccc3Sc3ccc(S(=O)(=O)N(C)C)cc32)CC1 [THIOTHIXENE]
